Legend:
OVCA429 = assay: Resazurin-based viability assay, 48 hr treatment, OVCA429; assay type: cell-based, human; details: read-out: OVCA429 IC50
SKOV3 = assay: Resazurin-based viability assay, 48 hr treatment, SKOV3; assay type: cell-based, human; details: read-out: SKOV3 IC50
[1] = parent drugs; cited from earlier work
Albumin = Albumin (Homo sapiens, UniProt P02768); details: parent drugs; cited from earlier work
[2] = cited from earlier work

Chain of Albumin (P02768 25-609, species assumed): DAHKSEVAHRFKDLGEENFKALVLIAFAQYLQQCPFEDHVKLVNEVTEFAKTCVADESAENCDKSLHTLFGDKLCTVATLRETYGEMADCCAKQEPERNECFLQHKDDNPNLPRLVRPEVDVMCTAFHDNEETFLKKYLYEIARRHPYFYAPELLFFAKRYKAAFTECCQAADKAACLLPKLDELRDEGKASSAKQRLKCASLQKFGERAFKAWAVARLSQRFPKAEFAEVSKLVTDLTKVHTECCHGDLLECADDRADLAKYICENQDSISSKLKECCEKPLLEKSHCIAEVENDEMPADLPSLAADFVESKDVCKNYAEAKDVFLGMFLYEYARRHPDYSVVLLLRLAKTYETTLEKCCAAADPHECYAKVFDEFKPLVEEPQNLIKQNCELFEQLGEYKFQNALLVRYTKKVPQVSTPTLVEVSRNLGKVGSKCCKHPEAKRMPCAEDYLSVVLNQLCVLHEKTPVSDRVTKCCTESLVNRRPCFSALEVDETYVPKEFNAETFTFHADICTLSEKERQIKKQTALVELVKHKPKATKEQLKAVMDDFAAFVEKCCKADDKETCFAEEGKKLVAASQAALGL

SMILES	IC50 (OVCA429)	IC50 (SKOV3)	logP [1]	% Albumin Binding (Albumin)	t1/2 initial (initial plasma half-life) [2]
N.N.O=C([O-])C1(C(=O)[O-])CCC1.[Pt+2] [Carboplatin, carboplatin]	210 ± 6 µM	100 ± 6 µM	-2.3[30]	40[29] %	5[32-33] min
N.N.[Cl][Pt][Cl] [Cisplatin, cisplatin]	15 ± 1 µM	3 ± 0.3 µM			
